# Data published in patent US20220249596A1, “PIC1 PEPTIDE COMPOSITIONS AND METHODS OF USE THEREOF FOR TREATMENT OF HYPOXIC ISCHEMIC ENCEPHALOPATHY” (REALTA HOLDINGS, LLC, priority 2019, published 2022).
# No end group written: not given here.
# Assays:
# Format in all cases: in vivo, rat
# C1q [1] = assay: CNS C1q level in whole cell brain lysate, fluorescent immunoassay; details: 8, 12 and 24 hours after initial insult, P<0.05
# Description: The local and systemic effects of NT, HT and PIC1 treatment on the complement cascade were measured. CNS C1q levels and systemic C1q and C5a levels were measured using a fluorescent immunoassay.
# CNS C1q levels were measured as follows. 150 μg of whole cell brain lysate in 1× PBS was added to the wells of a Costar high binding, black flat bottom 96-well polystyrene microplate (Corning, Steuben County, NY) and incubated overnight at 4° C. The plates were washed 3 times with 1× PBS-0.1% Tween 20 (PBST) and blocked with 10% normal donkey serum (NDS) for one hour. A 1:50 dilution of goat anti-human C1q (Complement Technology, Inc., Tyler, Tex.) in NDS was added into the wells and incubated for one hour at room temperature (RT). After washing, a 1:500 dilution of donkey anti-goat Alexa Fluor (AF) 488 (Life Technologies, Grand Island, N.Y.) in NDS was added, and incubated for one hour at RT. Wells were then washed and blocked with 10% normal goat serum (NGS) for one hour at RT. A 1:250 dilution of mouse anti-GAPDG (Abcam, Cambridge, UK) in NGS was added into the wells and incubated for one hour at RT. Wells were washed and a 1:500 dilution of goat anti-mouse AF 568 (Life Technologies, Grand Island, N.Y.) in NGS was added to incubate for one hour at RT. The wells were washed and the plate read using a Synergy HT (BioTek, Winooski, Vt.).
# C1q [2] = assay: Immunofluorescence quantification of C1q in brain; details: ipsilateral cortex and hippocampus, 48 hours, versus NT and HT, P<0.05
# Description: TUNEL/C1q staining was performed as follows. Five (5) μm paraffin-embedded coronal brain sections on slides were incubated (1 hour; 60° C.), deparaffinized with xylene, and rehydrated with ethanol (100%, 95%, 70%; RT). Endogenous peroxidase activity was blocked (0.3% H2O2/MeOH; 10 minutes; RT), and heat induced antigen retrieval was performed (when indicated) using 10 mM sodium citrate, pH 6.0. 10% normal serum (from the same species as the host of the secondary antibody) was used to block and to dilute antibodies. Samples were washed twice for 10 min each, in PBST between each step.
# After blocking for one hour at room temperature, tissues were incubated with 1:300 goat anti-Iba1 (Abcam), 1:250 goat anti-GFAP (Abcam), 1:500 chicken anti-NeuN (Millipore, Billerica, Mass.), or 1:100 mouse anti-NeuN (Millipore) in host appropriate blocking serum overnight at 4° C. Primary antibodies were probed with 1:500 donkey anti-goat (Abcam), goat anti-chicken (Abcam), or goat anti-mouse (Abcam) AF 488 or 568 in appropriate blocking serum for one hour at room temperature. Tissues were blocked a second time with NGS for one hour at room temperature. […]
# [3] = Novel object recognition test; details: 8 weeks after HIE, versus HT and NT animals, P<0.05
# Description: The novel object recognition test was performed at 8 weeks after HIE to test cognitive function by evaluating the differences in the exploration time of novel and familiar objects. The novel object recognition task tests for short-term, intermediate and long-term memory without the need for external motivation, reward, or punishment. Results on the test are influenced by both hippocampal and cortical injury. The test is based on the concept that when animals are exposed to a familiar and a novel object, they spend more time exploring the novel object. It is thought that the recognition of novelty requires more cognitive skills from the subject.
# Rats were trained for two days prior to novel object testing. During the training sessions, the rat was allowed to explore the testing chamber, a polycarbonate box (40×40 cm) with two identical objects for three minutes. On testing day, one of the familiar objects was replaced with a novel object, made with the same material but a different shape, and allowed to explore for three minutes. Video recordings of the interactions were reviewed by blinded investigators. Object exploration was defined as the rat directing its nose toward the object at a distance of less than 2 cm. The DINOR was calculated as ((time with novel object−time with familiar object))/(total time spent with objects).
substance,measurement,setting,value
IALILEPICCQERAA-dPEG24 (cysteine pairing not given here) [PIC1],"whole brain C1q levels, NT animals relative to PIC1-treated animals",C1q [1],significantly higher
same,C1q expression,C1q [2],significant reduction
same,novel object recognition: proportion of time exploring the novel object,[3],significantly higher proportion of time
